Measured values reported in US12404232B2, “Compounds and compositions for intracellular delivery of therapeutic agents” (ModernaTX, Inc., priority 2015, dated 2025).

Legend:
[1] = test system: non-human primates; experiment: Tolerability in non-human primates (clinical chemistry, hematology, observations); type: in vivo, Cynomolgus monkeys
Procedure: The tolerability and efficacy of nanoparticle compositions to non-human primates was also investigated using a sample formulation including Compound 18. The formulation was prepared according to the standard MC3 formulation described above and included an hEPO mRNA. Primates were administered a single dose of 0.05 (Group 1), 0.3 (Group 2), or 1.0 (Group 3) mpk via intravenous infusion for 60 minutes. Three primates were administered each dose. Expression of hEPO was measured prior to dosing and at 2, 6, 24, 48, and 96 hours post-treatment (Table 26). Table 28 includes levels of indicators of complement activation, while Table 29 includes cytokine induction data.
In general, lower doses were better tolerated. High doses induced body temperature elevation and hunched posture, which is similar to the behavior observed for primates administered higher doses of MC3 formulations.

[2] = test system: mice; experiment: Luc expression (bioluminescence, total flux) after intravenous administration to mice; type: in vivo
Procedure, shortened: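 Whole-body bioluminescence was read at 3, 6 and 24 h after a single IV 0.5 mg/kg dose of Luc mRNA nanoparticles in mice, six per group. Total flux (AUC) is reported relative to the MC3 benchmark.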

[3] = test system: mice; experiment: Luc expression in liver, lung, spleen and femur after intravenous administration to mice; type: in vivo; details: Luc mRNA, i.v. to mice, 0.5 mpk, 6 hours
Procedure: The efficacy of the nanoparticle compositions presented in Table 1A was further evaluated by measuring the expression of modified luciferase in the liver, lung, spleen, and femur upon administration of a given composition. Formulations were administered intravenously to mice (n=3) at a dosage of 0.5 mpk and bioluminescence measured after 6 hours. The standard MC3 formulation and a PBS control were also tested. […] Flux in the liver was lowest for compositions including Compounds 58, 59, 137, and 141. Flux in the spleen was highest for compositions including Compounds 4, 7, 33, 34, 48, 53, 108, 129, 130, and 148, and lowest for compositions including Compounds 9, 59, 124, and 141.

## CCCCCCCCCOC(=O)CCCCCCCN(CCO)CCCCCCCC(=O)OC(CCCCCCCC)CCCCCCCC [Compound 18, Heptadecan-9-yl 8-((2-hydroxyethyl)(8-(nonyloxy)-8-oxooctyl)amino)octanoate]
[1]; non-human primates, 0.05, 0.3 or 1.0 mpk
  White blood cell counts: slightly elevated in animals in the high dose group
[1]; non-human primates, all groups
  reticulocyte counts on Day 5: marked increase

## CCCCCC=CCC=CCCCCCCCCC(CCCCCCCCC=CCC=CCCCCC)OC(=O)CCCN(C)C (stereo not drawn) [MC3, heptatriaconta-6,9,28,31-tetraen-19-yl 4-(dimethylamino)butanoate, reference compound]
[2]; Luc total flux (Table 3D)
  AUC (p/s*h): 1.909E+011 p/s*h
[2]; i.v. administration, 6 h, geometric mean
  6 h Lipid/MC3 G.M. Luc Expression: 1
[2]; i.v. administration, total Luc flux (Table 3C)
  AUC (h*p/s): 8.24E+10 h*p/s
[3]
  Total Flux Femur: 2.56E+06
  Total Flux Liver: 2.57E+09
  Total Flux Lung: 1.27E+07
  Total Flux Spleen: 2.85E+07
